Laboratory results reported in patent publication US4474748A, “Medicaments potentiated with phenyl alkanols” (priority 1981, dated 1984).
Like-named read-outs stand apart in the source and are kept apart here.

Legend:
S. aureus = test: Bactericidal (killing) efficacy in the presence of citrated human blood, S. aureus; type: cell-based; settings: Table II
Protocol: (§1) A series of the following four solutions was prepared in accordance with the foregoing procedure: […]

[1] = stratum corneum; previous studies; cited from earlier work
C. albicans = test: Killing efficacy in the presence of citrated human blood, C. albicans; type: cell-based
Protocol: as §1

[2] = preparation containing 20% benzocaine; intact skin; cited from earlier work
P. aeruginosa = test: Bactericidal (killing) efficacy in the presence of citrated human blood, P. aeruginosa; type: cell-based; settings: Table I, 40% ethanol
Protocol: as §1

C. acnes = test: Bactericidal (killing) efficacy in the presence of citrated human blood, C. acnes; type: cell-based; settings: Table II
Text: In a similar manner, additional antimicrobial compositions of this invention have been tested and a summary of the test results appears in Table II.

Staphylococcus aureus = test: Topical staphylococcal infection in rats; type: in vivo, Staphylococcus aureus in rats; settings: for Abscess formation (share of animals): topical staphylococcal infection
Text: In tests and operative techniques carried out according to the procedure set forth in F. Goldschmidt, Reproducible Topical Staphylococcal Infection in Rats, Applied Microbiology, 23, No. 1, p.

intact human skin = settings: alcohol potentiators 10%
Protocol: To illustrate the enhanced penetration of the topical compositions of the invention, the following formulation was employed to prepare compositions which were then tested in a standardized skin blanching test wherein the degree of blanching corresponds to the degree of penetration.

**Q.** For O=c1[nH]c(=O)n([C@H]2C[C@H](O)[C@@H](CO)O2)cc1I [5-iodo-2-deoxyuridine], which “Number of Cells Survived” value (S. aureus; 0.2%, 1 minute) is on record?
**A.** 30 × 10^7 cells

**Q.** And the “Number of Cells Survived” value (S. aureus; 0.2%, 10 minutes)?
**A.** 30 × 10^7 cells

**Q.** What about the “Number of Cells Survived” value (S. aureus; 0.2%, 30 minutes) of the same compound?
**A.** 30 × 10^7 cells

**Q.** Which “Number of Cells Survived” value (S. aureus; 0.05%, 1 minute) does the source give for CCCCCCCCCCCCC[N+](C)(C)Cc1ccccc1 [Benzalkonium chloride] here?
**A.** 9.0 × 10^5 cells

**Q.** What about the “Number of Cells Survived” value (S. aureus; 0.05%, 10 minutes) of the same compound?
**A.** 1.0 × 10^5 cells

**Q.** What about the “Number of Cells Survived” value (S. aureus; 0.05%, 30 minutes) of the same compound?
**A.** 2.9 × 10^3 cells

**Q.** With C[S+](C)[O-] [dimethylsulfoxide (DMSO), dimethylsulfoxide] as the compound, how does the “Absorption of topically applied drugs” value [1] read?
**A.** can enhance the absorption of topically applied drugs through the stratum corneum

**Q.** With O=C(Nc1ccc(Br)cc1)c1cc(Br)cc(Br)c1O [Temasept IV, 3,4',5tribromosalicylanilide] as the compound, how does the “Number of Cells Survived” value (S. aureus; 0.05%, 1 minute) read?
**A.** 4.2 × 10^8 cells

**Q.** And the “Number of Cells Survived” value (S. aureus; 0.05%, 10 minutes)?
**A.** 4.0 × 10^8 cells

**Q.** And the “Number of Cells Survived” value (S. aureus; 0.05%, 30 minutes)?
**A.** 1.2 × 10^8 cells

**Q.** Which results are given for [O-][n+]1ccccc1[S-].[O-][n+]1ccccc1[S-].[Zn+2] [Zn--omadine]?
**A.** Number of Cells Survived (C. albicans; Table I, contact time 1 minute, human blood, 40% ethanol): 9 × 10^8 cells; Number of Cells Survived (C. albicans; Table I, contact time 10 minutes, human blood, 40% ethanol): 8.0 × 10^8 cells; Number of Cells Survived (C. albicans; Table I, contact time 30 minutes, human blood, 40% ethanol): 7 × 10^8 cells

**Q.** For CCOC(=O)c1ccc(N)cc1 [benzocaine], which “Surface anesthesia” value [2] is on record?
**A.** effective to cause surface anesthesia

**Q.** Which results are given for OCCC1CCCCC1 [2-Cyclohexylethanol, 2-cyclohexylethanol]?
**A.** Number of Cells Survived (P. aeruginosa; contact time 1 minute): 1.1 × 10^6 cells; Number of Cells Survived (P. aeruginosa; contact time 10 minutes): 7.8 × 10^4 cells; Number of Cells Survived (P. aeruginosa; contact time 30 minutes): 4.8 × 10^4 cells

**Q.** For Cc1cc(N)c2ccccc2[n+]1CCCCCCCCCC[n+]1c(C)cc(N)c2ccccc21 [Dequalinium chloride], which “Number of Cells Survived” value (C. acnes; 0.00125%, 1 minute) is on record?
**A.** 26 × 10^5 cells

**Q.** And the “Number of Cells Survived” value (C. acnes; 0.00125%, 10 minutes)?
**A.** 14 × 10^2 cells

**Q.** What about the “Number of Cells Survived” value (C. acnes; 0.00125%, 30 minutes) of the same compound?
**A.** 30 cells

**Q.** For CO[C@H]1/C=C/O[C@@]2(C)Oc3c(C)c(O)c4c(O)c(c(/C=N/N5CCN(C)CC5)c(O)c4c3C2=O)NC(=O)/C(C)=C\C=C\[C@H](C)[C@H](O)[C@@H](C)[C@@H](O)[C@@H](C)[C@H](OC(C)=O)[C@@H]1C [Rifampicin], which “Number of Cells Survived” value (C. acnes; 0.0125%, 1 minute) is on record?
**A.** 17 × 10^6 cells

**Q.** And the “Number of Cells Survived” value (C. acnes; 0.0125%, 10 minutes)?
**A.** 17 × 10^6 cells

**Q.** What about the “Number of Cells Survived” value (C. acnes; 0.0125%, 30 minutes) of the same compound?
**A.** 13 × 10^6 cells

**Q.** For CCCCCCCCCCCC[N+](C)(C)CCOc1ccccc1 [Domiphen bromide], which “Animals from which S. aureus could be recovered” value (Staphylococcus aureus; 10^5 or more cells per gram of excised body wall) is on record?
**A.** 82.3%

**Q.** And the “Abscess formation (share of animals)” value (Staphylococcus aureus; rats)?
**A.** 82.3%

**Q.** With CCCC(C)C(C)(C)O (stereo not drawn) [2,3-Dimethyl-2-hexanol, 2,3-dimethyl-2-hexanol] as the compound, how does the “Number of Cells Survived” value (P. aeruginosa; contact time 1 minute) read?
**A.** 8.5 × 10^6 cells

**Q.** What about the “Number of Cells Survived” value (P. aeruginosa; contact time 10 minutes) of the same compound?
**A.** 7.6 × 10^6 cells

**Q.** What about the “Number of Cells Survived” value (P. aeruginosa; contact time 30 minutes) of the same compound?
**A.** 5.1 × 10^6 cells

**Q.** With CN(C)C1C(=O)C(C(N)=O)=C(O)C2(O)C(=O)C3=C(O)c4c(O)cccc4C(C)(O)C3CC12 (stereo not drawn) [Tetracycline] as the compound, how does the “Number of Cells Survived” value (S. aureus; 0.05%, 1 minute) read?
**A.** 4.2 × 10^8 cells

**Q.** And the “Number of Cells Survived” value (S. aureus; 0.05%, 10 minutes)?
**A.** 4.1 × 10^8 cells

**Q.** And the “Number of Cells Survived” value (S. aureus; 0.05%, 30 minutes)?
**A.** 3.8 × 10^7 cells

**Q.** What about the “Number of Cells Survived” value (C. albicans; Table II, 0.05%, 1 minute) of the same compound?
**A.** 4.3 × 10^7 cells

**Q.** And the “Number of Cells Survived” value (C. albicans; Table II, 0.05%, 10 minutes)?
**A.** 3.9 × 10^7 cells

**Q.** And the “Number of Cells Survived” value (C. albicans; Table II, 0.05%, 30 minutes)?
**A.** 3.6 × 10^7 cells

**Q.** For CNC[C@H](O)c1ccc(O)c(O)c1 [Epinephrine (E)], which “Skin blanching score (penetration of epinephrine)” value (from here on “Skin blanching score”) (intact human skin; 10 min after application) is on record?
**A.** 0

**Q.** What about the “Skin blanching score” value (intact human skin; 20 min after application) of the same compound?
**A.** 0-1

**Q.** And the “Skin blanching score” value (intact human skin; 30 min after application)?
**A.** 0

**Q.** What about the “Skin blanching score” value (intact human skin; 40 min after application) of the same compound?
**A.** 0

**Q.** And the “Skin blanching score” value (intact human skin; 50 min after application)?
**A.** 0

**Q.** What about the “Skin blanching score” value (intact human skin; 60 min after application) of the same compound?
**A.** 0

**Q.** With COC1=CC(=O)C[C@@H](C)[C@]12Oc1c(Cl)c(OC)cc(OC)c1C2=O [Griseofulvin] as the compound, how does the “Number of Cells Survived” value (C. acnes; 0.0125%, 1 minute) read?
**A.** 94 × 10^5 cells

**Q.** What about the “Number of Cells Survived” value (C. acnes; 0.0125%, 10 minutes) of the same compound?
**A.** 99 × 10^5 cells

**Q.** And the “Number of Cells Survived” value (C. acnes; 0.0125%, 30 minutes)?
**A.** 92 × 10^5 cells

**Q.** Which “Number of Cells Survived” value (S. aureus; 0.025%, 1 minute) does the source give for CC[C@H]1OC(=O)[C@H](C)[C@@H](O[C@H]2C[C@@](C)(OC)[C@@H](O)[C@H](C)O2)[C@H](C)[C@@H](O[C@@H]2O[C@H](C)C[C@H](N(C)C)[C@H]2O)[C@](C)(O)C[C@@H](C)C(=O)[C@H](C)[C@@H](O)[C@]1(C)O [Erythromycin] here?
**A.** 4.9 × 10^7 cells

**Q.** What about the “Number of Cells Survived” value (S. aureus; 0.025%, 10 minutes) of the same compound?
**A.** 4.6 × 10^7 cells

**Q.** And the “Number of Cells Survived” value (S. aureus; 0.025%, 30 minutes)?
**A.** 4.3 × 10^ 7 cells

**Q.** And the “Number of Cells Survived” value (C. albicans; Table II, 0.025%, 1 minute)?
**A.** 7.2 × 10^8 cells

**Q.** What about the “Number of Cells Survived” value (C. albicans; Table II, 0.025%, 10 minutes) of the same compound?
**A.** 7.1 × 10^8 cells

**Q.** What about the “Number of Cells Survived” value (C. albicans; Table II, 0.025%, 30 minutes) of the same compound?
**A.** 9.2 × 10^7 cells

**Q.** And the “Number of Cells Survived” value (C. acnes; 0.0125%, 1 minute)?
**A.** 22 × 10^5 cells

**Q.** What about the “Number of Cells Survived” value (C. acnes; 0.0125%, 10 minutes) of the same compound?
**A.** 21 × 10^5 cells

**Q.** What about the “Number of Cells Survived” value (C. acnes; 0.0125%, 30 minutes) of the same compound?
**A.** 18 × 10^5 cells

**Q.** For O=C(Nc1ccc(Cl)cc1)Nc1ccc(Cl)c(Cl)c1 [3,4,4'-Chlorocarbanilide], which “Number of Cells Survived” value (S. aureus; 0.05%, 1 minute) is on record?
**A.** 6.1 × 10^7 cells

**Q.** And the “Number of Cells Survived” value (S. aureus; 0.05%, 10 minutes)?
**A.** 5.2 × 10^7 cells

**Q.** What about the “Number of Cells Survived” value (S. aureus; 0.05%, 30 minutes) of the same compound?
**A.** 3.0 × 10^7 cells

**Q.** Which “Number of Cells Survived” value (C. acnes; 0.0125%, 1 minute) does the source give for N=C(NCCCCCCNC(=N)NC(=N)Nc1ccc(Cl)cc1)NC(=N)Nc1ccc(Cl)cc1 [Hibitane] here?
**A.** 45 × 10^6 cells

**Q.** What about the “Number of Cells Survived” value (C. acnes; 0.0125%, 10 minutes) of the same compound?
**A.** 51 × 10^5 cells

**Q.** What about the “Number of Cells Survived” value (C. acnes; 0.0125%, 30 minutes) of the same compound?
**A.** 0 cells

**Q.** Which “Number of Cells Survived” value (S. aureus; 0.0125%, 1 minute) does the source give for N[C@@H]1CON=C1O [Cycloserine] here?
**A.** 60 × 10^7 cells

**Q.** What about the “Number of Cells Survived” value (S. aureus; 0.0125%, 10 minutes) of the same compound?
**A.** 60 × 10^7 cells

**Q.** What about the “Number of Cells Survived” value (S. aureus; 0.0125%, 30 minutes) of the same compound?
**A.** 60 × 10^7 cells

**Q.** For CCC(O)C1CCCCC1 (stereo not drawn) [1-Cyclohexyl-1-propanol, 1-cyclohexyl-1-propanol], which “Recoverable Staphylococcus aureus” value (Staphylococcus aureus; 3.0%, alone, rats) is on record?
**A.** ≥ 10^6 cells per gram of excised body wall

**Q.** What about the “Abscess formation (share of animals)” value (Staphylococcus aureus; rats) of the same compound?
**A.** 100%
